Article PMC6784148 (Toxins, 2019)
Like-named read-outs stand apart in the source and are kept apart here.

What was measured:
[1] = test system: intestinal porcine epithelial cell line (IPEC-J2)
in vitro = conditions: pig
HepG2 cells = conditions: up until a concentration of 100 µM; cited from earlier work
[2] = test system: intestinal porcine epithelial cell line (IPEC-J2); test: cells; conditions: Sus scrofa, IPEC-J2, 48 h
rats = test system: rats; design: method as in PMID 9872769; conditions: at levels of 0.05 and 0.1%; cited from earlier work
HT29 cells = test system: HT29 cells; design: method as in PMID 29248571; conditions: after 48 h; cited from earlier work
HCEC-1CT cells = test system: HCEC-1CT cells; design: method as in PMID 29248571; conditions: after 48 h; cited from earlier work
[3] = test system: three different cancer cell lines; design: method as in PMID 1172201; conditions: cited from earlier work
[4] = pigs; cited from earlier work
[5] = design: method as in PMID 24239892, PMID 22008903; conditions: cited from earlier work
Caco-2 cells = test system: Caco-2 cells; design: method as in doi:10.3920/WMJ2014.1861; conditions: 780 µM, 48 h of incubation; cited from earlier work
THP-1 monocytes = test system: THP-1 monocytes; design: method as in doi:10.3920/WMJ2014.1861; conditions: cited from earlier work
[6] = test system: glucuronidation of DON in human liver microsomes; design: method as in PMID 31049613, PMID 29465119; conditions: cited from earlier work

| Compound | Negative effects on IPEC-J2 in the tested concentration range [1] | IC50 ([2]; read-out: Relative IC50 value) | Relative IC50 value [1] | Absolute IC50 value [1] | other results |
| --- | --- | --- | --- | --- | --- |
| O=C(O)CC[N+](=O)[O-] [3-nitropropionic acid] | None | – | – | – | – |
| Cc1cc(O)cc2oc(=O)c3c(O)cc(O)cc3c12 [Alternariol] | – | 20.3 µM | 5232 µg/kg | – | viability (in vitro): ~50%; viability at 20 µM (in vitro): 76.3%; Cell viability of HepG2 cells (HepG2 cells): did not decrease in a concentration-dependent manner; Cytotoxic effect on IPEC-J2 (in words) [1]: slight decrease in viability |
| CCC(=O)CCCCC[C@@H]1NC(=O)[C@H]2CCCCN2C(=O)[C@H]([C@@H](C)CC)NC(=O)[C@H](Cc2cn(OC)c3ccccc23)NC1=O [Apicidin] | – | 0.49 µM | 306 µg/kg | 324 µg/kg | Toxic effects in rats (rats): leading to death; IC50 ([2]; read-out: Absolute IC50 value): 0.52 µM |
| COC1=C(C2=C(OC)C(=O)c3cc4oc(C)cc(=O)c4c(O)c3C2=O)C(=O)c2c(cc3oc(C)cc(=O)c3c2O)C1=O [Aurofusarin] | – | – | 5329 µg/kg | 6766 µg/kg | Concentration at which a significant decrease in viability starts (HT29 cells): 5 µM; Concentration at which a significant decrease in viability starts (HCEC-1CT cells): 5 µM; IC50 ([1]; read-out: Absolute IC50 value): 11.9 µM; IC50 ([1]; read-out: Relative IC50 value): 9.34 µM |
| COC1=CC(=O)c2c(c(O)c3oc4cc(OC)cc(C)c4c(=O)c3c2O)C1=O [Bikaverin] | – | 0.75 µM | 287 µg/kg | 711 µg/kg | ED50 (cytotoxicity) [3]: 0.5 to 4.2 µg/mL; ED50 (cytotoxicity) ([3]; µg/mL values expressed in µM): 1.31 to 10.99 µM; IC50 ([2]; read-out: Absolute IC50 value): 1.86 µM; Viability after applying higher concentrations [1]: did not further decrease below 50% |
| CC1=C[C@H]2O[C@@H]3[C@H](O)C[C@](C)([C@@]2(CO)[C@H](O)C1=O)[C@]31CO1 [Deoxynivalenol, reference compound] | – | – | 557 µg/kg | 756 µg/kg | Bioavailability after oral administration [4]: 98.6% ± 23.6%; IC50 ([1]; read-out: Absolute IC50 value): 2.55 µM; IC50 ([1]; read-out: Relative IC50 value): 1.88 µM |
| Cc1cc(O)c2c(c1)C(=O)c1cc(O)cc(O)c1C2=O [Emodin] | – | 13.1 µM | 3537 µg/kg | 5056 µg/kg | IC50 ([2]; read-out: Absolute IC50 value): 18.7 µM; Viability after applying higher concentrations [1]: did not further decrease below 50%; Viability at concentrations >50 µM [1]: did not further decrease |
| CC[C@H](C)[C@H]1C(=O)O[C@H](C(C)C)C(=O)N(C)[C@@H](C(C)C)C(=O)O[C@H](C(C)C)C(=O)N(C)[C@@H](C(C)C)C(=O)O[C@H](C(C)C)C(=O)N1C [Enniatin B1] | – | 2.69 µM | 1759 µg/kg | 2400 µg/kg | Oral bioavailability [5]: high oral bioavailability; IC50 ([2]; read-out: Absolute IC50 value): 3.67 µM |
| CC(C)[C@H]1C(=O)O[C@H](C(C)C)C(=O)N(C)[C@@H](C(C)C)C(=O)O[C@H](C(C)C)C(=O)N(C)[C@@H](C(C)C)C(=O)O[C@H](C(C)C)C(=O)N1C [Enniatin B] | – | 3.49 µM | 2233 µg/kg | 2079 µg/kg | IC50 ([2]; read-out: Absolute IC50 value): 3.25 µM; Viability after applying higher concentrations [1]: did not further decrease below 50% |
| C/C=C/[C@@H]1C=C[C@@H]2C[C@H](C)CC[C@H]2[C@]1(C)/C(O)=C1/C(=O)[C@H](CO)N(C)C1=O [Equisetin] | – | – | 4120 µg/kg | – | Cytotoxic effect on IPEC-J2 (in words) [1]: slight decrease in viability; Cell viability ([1]; 20 µM): 64.0% (±7.6%); IC50 ([1]; read-out: Relative IC50 value): 11 µM |
| CN1C(=O)[C@]23CC4=CC=C[C@H](O)[C@H]4N2C(=O)[C@@]1(CO)SS3 [Gliotoxin] | – | 0.63 µM | 206 µg/kg | 209 µg/kg | IC50 ([2]; read-out: Absolute IC50 value): 0.64 µM |
| COc1c(C)c2c(c(O)c1C/C=C(\C)CCC(=O)O)C(=O)OC2 [Mycophenolic Acid, Mycophenolic acid] | – | 0.543 µM | 170 µg/kg | – | viability (in vitro): ≥ 66%; Decrease of mitochondrial activity (Caco-2 cells): 45%; Effect in THP-1 monocytes (THP-1 monocytes): no effect; Abrupt decreased viability [1]: 26.1% ± 12.1%; Cytotoxic effect on IPEC-J2 (in words) [1]: slight decrease in viability; Viability at concentrations from 2.5 to 150 µM [1]: no further loss in viability; IC50 ([1]; read-out: Relative IC50 value): 0.53 µM |
| O=C1C=C2C(=CCOC2O)O1 (stereo not shown) [Patulin] | – | 3.18 µM | 490 µg/kg | 495 µg/kg | IC50 ([2]; read-out: Absolute IC50 value): 3.21 µM |
| COc1cc(O)c2c(O)c3c(=O)cc(C)oc3cc2c1 [Rubrofusarin] | – | 21.5 µM | 5865 µg/kg | – | viability at 50 µM (in vitro): 64 ± 8.7%; Cytotoxic effect on IPEC-J2 (in words) [1]: slight decrease in viability |
| COc1cc(O)c2c(=O)oc3cc(O)cc(C)c3c2c1 [alternariol monomethyl ether] | None | – | – | – | – |
| O=C1N[C@@H](Cc2c[nH]c3ccccc23)C(=O)N2CCC[C@@H]12 [brevianamid F] | None | – | – | – | – |
| CC1(C)CCC[C@]2(C)[C@@H]3[C@H]1[C@@H](O)[C@@]2(C)C[C@H]3O [culmorin] | None | – | – | – | Effect on glucuronidation of DON [6]: able to inhibit the glucuronidation of DON; Cytotoxic effect on IPEC-J2 (in words) [1]: no cytotoxic effect |
| O=C1N[C@@H](Cc2ccc(O)cc2)C(=O)N2CCC[C@@H]12 [cyclo-(L-Pro-L-Tyr)] | None | – | – | – | Cytotoxic effect on IPEC-J2 (in words) [1]: non-cytotoxic |
| CC(C)[C@@H]1NC(=O)[C@@H]2CCCN2C1=O [cyclo-(L-Pro-L-Val)] | None | – | – | – | – |
| CCCCc1ccc(C(=O)O)nc1 [fusaric acid] | None | – | – | – | – |
| O=c1cc(CO)occ1O [kojic acid] | None | – | – | – | – |
| O=c1cc(O)c1=O [moniliformin] | None | – | – | – | – |
| C=CC(C)(C)[C@@]12C[C@H]3C(=O)N/C(=C/c4c[nH]cn4)C(=O)N3[C@@H]1Nc1ccccc12 [roquefortine C] | None | – | – | – | – |
| CC(C)C[C@@H]1NC(=O)[C@H](C)N(C)C(=O)CNC(=O)/C(=C/c2ccccc2)N(C)C1=O [tentoxin] | None | – | – | – | – |
| OCCc1c[nH]c2ccccc12 [tryptophol] | None | – | – | – | – |
| Beauvericin | – | – | 1756 µg/kg | 1905 µg/kg | IC50 ([1]; read-out: Absolute IC50 value): 2.43 µM; IC50 ([1]; read-out: Relative IC50 value): 2.24 µM |
| Enniatin A | – | – | 1964 µg/kg | 2319 µg/kg | IC50 ([1]; read-out: Absolute IC50 value): 3.4 µM; IC50 ([1]; read-out: Relative IC50 value): 2.88 µM |
| Enniatin A1 | – | – | 2151 µg/kg | 2772 µg/kg | IC50 ([1]; read-out: Absolute IC50 value): 4.15 µM; IC50 ([1]; read-out: Relative IC50 value): 3.22 µM |
